Data published in patent publication US6635242B2, “Broad spectrum microbicidal and spermicidal compositions, devices, and methods” (The Pennsylvania State University, priority 1998, dated 2003).

Key:
HSV-2 (strain 333) = assay: HSV-2 inactivation assay (plaques on CV-1 monolayers); assay type: cell-based, herpes simplex virus; details: 37° C. 10 min, virus then diluted 100 fold
Experimental: HSV-2 (strain 333) virus stocks were propagated by low multiplicity infection of African Green monkey kidney (CV-1) cells and subsequent preparation of cell-free supernatants from frozen and thawed preparations of lytically infected cultures. Virus titers were determined by assay in CV-1 cell monolayers. Virus stocks were maintained in CV-1 cell culture medium which was Dulbecco's medium supplemented with antibiotics and 10% fetal calf serum.
For inactivation of HSV-2, 39 μl of virus was mixed with 1 μl of a 40×concentrated solution of detergent and then incubated at 37° C. for 10 min. After inactivation, the 40 μl of virus sample was diluted to 4 ml (1:100) using cell culture medium, and 1 ml of the diluted virus was adsorbed onto CV-1 monolayers for 1 hr at 37° C. Following adsorption, monolayers were refed and incubated at 37° C., 5% CO2. Between 20 and 24 hr post infection, monolayers were fixed, stained with crystal violet and plaques counted using a dissecting microscope. The numbers in Table 1 each represent an average of 2 plates.

HIV-1 (strain IIIB) = assay: HIV-1 inactivation assay (HeLa-CD4-LTR-β-gal indicator cells); assay type: cell-based; details: 10 min 37° C.
Experimental: One day prior to the assay, HeLa-CD4-LTR-β-gal cells were seeded into 12-well culture dishes at a concentration of 8×10^4 cells per well. A high titer (10^7.17 TCID50/ml) virus stock of HIV-1 (strain IIIB; Advanced Biotechnologies, Inc., Columbia, Md.) was diluted 1:10 with RPMI 1640 supplemented with 10% FBS. To assess viral inactivation by SDS, 78 μl of diluted virus were mixed with 2 μl of detergent solution, and incubated for 10 min at 37° C. After the inactivation period, the virus and detergent were diluted with 720 μl R10 (1:10) supplemented with DEAE dextran (20 μg/ml final concentration). Aliquots of treated virus (300 μl) were then added to duplicate wells of HeLa cells and incubated at 37° C. for 2 hr. Following viral adsorption, 2 ml of fresh media (DMEM supplemented with 10% FBS, 0.1 mg/ml G418, and 0.05 mg/ml hygromycin B) were added to each well. After incubation at 37° C. and 5% CO2 for 48 hr post-infection, cells were fixed and stained for β-galactosidase expression.
It is established that N-9 can inactivate HIV-1. We compared inactivation of HIV-1 by a second non-ionic detergent, C31G, and by SDS. High titer virus stocks of HIV-1 were incubated with either C31G or SDS and then virus was assayed on indicator cells expressing β-gal under the control of the HIV-1 LTR. After 48 hours, cells were stained and the number of cells expressing increased β-gal counted. […].

BPV-1 = BPV-1 focus assay in C127 mouse cells; assay type: cell-based, bovine papillomavirus; details: for foci/plate Exp. 2 Day 14 / foci/plate Exp. 2 Day 17: 37° C. 10 minutes; for foci/plate Exp. 2 Day 14 / foci/plate Exp. 2 Day 17 / foci/plate Exp. 1 day 12: diluted 1:1000; for foci/plate Exp. 1 day 12: 37° C. 30 minutes
Experimental: Cell-free stocks of BPV-1 were prepared by extraction (10% w/v) of epidermal bovine warts in phosphate buffered saline (PBS). In order to detect the transforming ability of BPV-1, C127 mouse cells were seeded (3×10^5 cells per flask) into T-25^2 flasks. After 24 hr of growth, subconfluent cells were infected with BPV-1. For the positive controls, stock virus (20 μl) was diluted (1:1) with PBS, incubated at 37° C. for 10 min, diluted […] and then added (100 μl ) into the 5 ml of cell culture medium present on the cells. Cells were refed at 24 hours and subsequently 2 times weekly. The presence of morphologically transformed foci was counted after 2 weeks and then again at 3 weeks.
Virus inactivations were carried out in vitro by addition of concentrated SDS solutions to the virus stocks (20 μl of virus plus 20 μl of detergent) and subsequent incubation at 37° C. for 10 or 30 min as indicated. Following inactivation, virus was diluted 1000 fold to lower the detergent concentration and the preparations were immediately used for infection as above.
Although SDS could effectively reduce HSV-2 infectivity, it remained possible that this destruction was mediated by envelope removal. Because papillomaviruses are non-enveloped, the possibility remained that SDS would fail to inactivate these viruses. We utilized BPV-1 as a prototype PV because of its ability to rapidly (within 2 weeks) form multi-layered transformed foci in mouse fibroblasts in an in vitro assay. Table 3 describes results of two separate experiments in which stocks of BPV-1 were incubated at 37° C. with various concentrations of SDS (5% to 5×10^−4%) for either 10 or 30 minutes, diluted to lower the SDS concentration (to avoid cell toxicity) and then used to infect C127 cells. […] Table 4 lists several other commercially available detergents that were tested for possible inactivation of BPV-1. None of these detergents inactivated the morphologic transforming properties of the BPV-1.

CRPV = assay type: in vivo, cottontail rabbit papillomavirus; details: 0.05% SDS
[1] = tested on: lymphocyte-, macrophage- and dual-tropic strains of HIV-1 (IIIB, BaL, 89.6); assay: Cell-free HIV-1 inactivation (FIG. 5); assay type: cell-based, human immunodeficiency virus; details: HCLB or P4-R5 indicator cells
Experimental: Cell-free HIV-1 strain IIIB (A) was treated with N-9, C31G, or SDS, and used to infect HCLB cells. Cell-free HIV-1 strains BaL (M tropic) (B) and 89.6 (dual tropic) (C) were treated with N-9, C31G or SDS,and used to infect P4-R5 cells. Assays were conducted. Infectivity following exposure is expressed as a percentage relative to the number of β-gal-positive cells in duplicate wells infected with virus incubated in the absence of a microbicidal compound. Results shown in FIG. 5 are the average cell counts for a total of four wells per concentration in two independent experiments.

[2] = 2.5 × 10^−3 % SDS during treatment
[3] = 5 × 10^−2 % SDS during treatment
[4] = 5 × 10^−3 % SDS during treatment
[5] = 5 × 10^−4 % SDS during treatment

For CCCCCCCCCCCCOS(=O)(=O)[O-].[Na+] [SDS, Sodium dodecyl sulfate], which “Plaques/Plate (5 experiments)” value (HSV-2 (strain 333); 1 × 10^−1 % SDS during treatment) is on record?
The value was 0/0/0/0/0.

And the “Plaques/Plate (5 experiments)” value (HSV-2 (strain 333); 1.25 × 10^−2 % SDS during treatment)?
Its value is 0/0/0/0/0.

And the “Plaques/Plate (5 experiments)” value (HSV-2 (strain 333); 2.5 × 10^−2 % SDS during treatment)?
The value was 0/0/0/0/0.

And the “Plaques/Plate (5 experiments)” value (HSV-2 (strain 333); [2])?
Its value is 28/54/322/145/104.

What about the “Plaques/Plate (5 experiments)” value (HSV-2 (strain 333); [3]) of the same molecule?
Its value is 0/0/0/0/0.

And the “concentration (as low as) giving total inactivation of HIV-1” value (HIV-1 (strain IIIB))?
Its value is 0.025%.

What about the “foci/plate Exp. 2 Day 14” value (BPV-1; [2]) of the same molecule?
The value was 273.

What about the “foci/plate Exp. 2 Day 17” value (BPV-1; [2]) of the same molecule?
The value was 162.

What about the “foci/plate Exp. 1 day 12” value (BPV-1; 5 % SDS during treatment) of the same molecule?
The value was 0.

And the “foci/plate Exp. 1 day 12” value (BPV-1; 5 × 10^−1 % SDS during treatment)?
Its value is 0.

And the “foci/plate Exp. 2 Day 14” value (BPV-1; [3])?
Its value is 0.

What about the “foci/plate Exp. 2 Day 17” value (BPV-1; [3]) of the same molecule?
The value was 0.

And the “foci/plate Exp. 1 day 12” value (BPV-1; [3])?
Its value is 0.

And the “foci/plate Exp. 2 Day 14” value (BPV-1; [4])?
Its value is 271.

And the “foci/plate Exp. 2 Day 17” value (BPV-1; [4])?
The value was 150.

And the “foci/plate Exp. 1 day 12” value (BPV-1; [4])?
Its value is 0.

What about the “foci/plate Exp. 2 Day 14” value (BPV-1; [5]) of the same molecule?
The value was 229.

And the “foci/plate Exp. 2 Day 17” value (BPV-1; [5])?
Its value is 151.

And the “relative potency in dose response curves” value (BPV-1; compared with other alkyl sulfate group members)?
Its value is “most potent”.

And the “inactivation of BPV-1 morphologic transformation of C127 cells” value (BPV-1; detergent 1% final concentration, 37° C., 10 min)?
The value was “completely eliminated virus foci”.

And the “concentration (as low as) that totally inactivates BPV-1 transforming ability” value (BPV-1; treatment of the virus at 37° C. for 10 minutes)?
The value was 0.05%.

What about the “concentration (as low as) that totally inactivates BPV-1 transforming ability” value (BPV-1; treatment of the virus at 37° C. for 30 minutes) of the same molecule?
The value was 0.005%.

And the “development of papillomas at the six sites that received SDS treated preparations (FIG. 1b)” value (CRPV; 10^−1 dilution of virus stock, 10 min, 37° C., rabbits)?
Its value is “delayed in the development of papillomas”.

And the “inactivation of CRPV (GMD of lesions, FIG. 1a)” value (CRPV; 10^−1 dilution of virus stock, 10 min, 37° C., rabbits, days 18-50)?
The value was “substantially inactivated”.

And the “sites inoculated with treated virus in which papillomas failed to develop” value (CRPV; 10^−2 dilution of CRPV stock, 37° C. 10 min, five rabbits, 3-6 weeks)?
The value was 8 of 10.

What about the “inactivation of cell-free HIV-1 strains IIIB, BaL and 89.6 (infectivity, β-gal-positive cells)” value [1] of the same molecule?
Its value is “inactivated”.
